In general, Kd refers to the free concentration of one partner at which half of the binding sites on the other are occupied at equilibrium, for simple one-to-one binding.

For assay [1], the target named is holo-CapF (reconstituted with Zn^2+) (Staphylococcus aureus, UniProt A0A0H3JP37). In words: ITC binding to CapF reconstituted with Zn2+ (holo-CapF). From the text: Because tropolone and its analogs have been described as metal chelators in proteins, we anticipated that binding of the inhibitor to CapF is governed by the Zn^2+ ion present in the cupin domain[12]. To confirm this hypothesis, we performed two different types of experiments. First, we determined the binding properties of 3-isopropenyl-tropolone to apo-CapF (i.e. Zn^2+-depleted CapF) and to holo-CapF (reconstituted with Zn^2+) by isothermal titration calorimetry (ITC). The stoichiometry is consistent with a 1:1 binding model.
Figure 3 Binding of 3-isopropenyl-tropolone to CapF requires Zn^2+. CapF (150 μM) reconstituted with Zn^2+ was titrated with 1.65 mM inhibitor in the absence (a) or the presence (b) of 1 mM EDTA. The upper panels correspond to the titration data, and the lower panels to the integrated binding isotherms. (c) Binding competition assay. CapF (1.0 μM) reconstituted with Zn^2+ in the presence of the Zn^2+-sensitive dye FluoZin-3 (1.0 μM) was titrated with 3-isopropenyl-tropolone (λEX = 490 nm; λEM = 520 nm).
Binding constants and thermodynamic parameters of the interaction between CapF and fragment compounds were determined with an iTC200 instrument (GE Healthcare) at 25 °C. Samples were equilibrated in a buffer composed of 10 mM HEPES (pH 7.4) and 150 mM NaCl supplemented with 5% (v/v) DMSO. CapF at 150–270 μM was titrated with compounds at 0.5–1.65 mM. Analysis of the data was performed with ORIGIN7 using a one-site binding model.
Figure S8. Binding isotherms of compounds with CapF as determined by ITC. (a) tropone, (b) 2-Cl-tropone, (c) tropolone, (d) 4-isopropyl-tropolone. Concentration of CapF in the cell was 150 µM, except in panel (a) where it was 270 µM. Concentration of compounds was 1.65 mM, except in panel (a) where it was 0.5 mM. Titrations were performed in an iTC200 instrument at 25 °C.
Data analysis was carried out with ORIGIN.

For assay [2], the system named is CapF. In words: NADPH consumption assay (absorbance at 340 nm). It is filed as biochemical, Staphylococcus aureus. The note with it: 0.02 μM CapF, 1.0 μM CapE, 125 μM UDP-D-GlcNAc, 250 μM NADPH, 37 °C. Here is the method:
A second assay monitoring the consumption of NADPH corroborates the inhibitory effect of 3-isopropenyl-tropolone (Fig. 2c). This assay is sensitive to the NADPH consumed by the SDR domain during the second reaction catalyzed by CapF (reduction step). […] Nevertheless, additional experiments were required to corroborate that idea (see below).
The enzymatic performance of CapF was evaluated by examining the consumption of NADPH spectrophotometrically, or by monitoring the disappearance of substrate and the formation of product by HPLC[9][12]. First, the time-dependent consumption of NADPH (monitored from a decrease of adsorption at 340 nm) was carried out in 384-well plates at a final volume of 50 μL. The solution contained 1.0 μM CapE, 0.02 μM CapF, 125 μM UDP-D-GlcNAc (substrate), 250 μM NADPH and fragment compounds at various concentrations in HBS supplemented with 0.005% (v/v) Tween-20 and 5% (v/v) DMSO. Each reaction mixture was incubated at 37 °C and the absorption at 340 nm was measured with a plate reader (PHERAstar, BMG Labtech, Durham, NC).
Figure S7. (a) Structure of compounds employed. (b-d) Time course of NADPH consumption by CapF in the presence of (b) tropolone, (c) 4-isopropyl-tropolone, and (d) 2-Cl-tropone. Increasing the concentration of compounds decreases the rate of consumption of NADPH. (e-g) Inhibition after two hours for (e) tropolone, (f) 4-isopropyl-tropolone, and (g) 2-Cl-tropone. Concentration of CapE and CapF was 1.0 µM and 0.02 µM, respectively. Concentration of NADPH and UDP-D-GlcNAc was 250 µM and 125 µM, respectively. The change of absorbance was calculated with respect to a control assay in the absence of CapF.
(1 picture or pasted object on this page, not shown here)

Assay [3] has as its target CapF. The note with it: cited from earlier work.

Like-named read-outs stand apart in the source and are kept apart here.

Sequence of holo-CapF (reconstituted with Zn^2+) (A0A0H3JP37 entry or part of it): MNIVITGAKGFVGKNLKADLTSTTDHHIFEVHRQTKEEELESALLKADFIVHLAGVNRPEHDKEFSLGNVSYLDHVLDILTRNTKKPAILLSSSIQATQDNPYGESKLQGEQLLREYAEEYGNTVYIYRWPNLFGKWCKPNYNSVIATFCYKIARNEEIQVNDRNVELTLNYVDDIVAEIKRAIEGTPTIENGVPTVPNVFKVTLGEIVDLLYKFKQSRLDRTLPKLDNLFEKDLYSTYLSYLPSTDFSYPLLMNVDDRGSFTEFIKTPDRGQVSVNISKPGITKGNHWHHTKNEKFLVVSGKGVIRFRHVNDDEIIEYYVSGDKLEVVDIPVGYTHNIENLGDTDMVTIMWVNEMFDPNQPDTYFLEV

Take `O=c1cccccc1Cl` [2-Cl-tropone]: the “binding to CapF by ITC” value in assay [1] (ITC, 25 °C) is on record as “not detected”. Further, the “inhibition of NADPH consumption” value with CapF [2] is on record as “did not significantly inhibit”.
Take `CC(C)c1cccc(=O)c(O)c1` [4-isopropyl-tropolone]: the dissociation constant Kd is 1800 µM in assay [1] (ITC, 25 °C, 10 mM HEPES pH 7.4, 150 mM NaCl, 5% DMSO, one-site model, read-out: KD) and 1800 µM in assay [1] (ITC, 25 °C, read-out: KD). In assay [1] (ITC, stoichiometry was fixed to n = 1 in the fit), the “n (binding stoichiometry)” value was found to be 1.0. The “inhibition of NADPH consumption” value in the assay with CapF [2] is listed as “inhibited the consumption of NADPH in a concentration-dependent basis”.
In assay [1], `O=c1cccccc1O` [tropolone] displayed a Kd of 38 ± 7 µM. Further, in assay [1] (ITC, 25 °C), the “n (binding stoichiometry)” value turned out to be 1.1 ± 0.2, the “ΔH°” value is -2.9 ± 0.8 kcal/mol and the “−TΔS°” value is -3.2 ± 1.0 kcal/mol. In addition, the “ligand efficiency (LE = −ΔG/HAC)” value in assay [1] (from ITC binding free energy) came to 0.67 kcal/mol. Also, the “inhibition of NADPH consumption” value in the assay with CapF [2] was “inhibited the consumption of NADPH in a concentration-dependent basis”.
Regarding `O=c1cccccc1` [tropone], the “binding to CapF by ITC” value in assay [1] (ITC, 25 °C) is given as “not detected”. The “inhibition of NADPH consumption” value in the assay with CapF [2] was “did not significantly inhibit”.
In the case of NADPH, at CapF [3], the dissociation constant (Kd) is 1.6 µM.

Values taken from paper PMC5393024, “Discovery and characterization of natural tropolones as inhibitors of the antibacterial target CapF from Staphylococcus aureus” (Scientific Reports, 2015).
